PMC10333884, “Large‐scale phosphomimetic screening identifies phospho‐modulated motif‐based protein interactions” (Molecular Systems Biology, 2023)
Non-standard residues stand in square brackets, D forms with d. Residues, ends and D or L forms follow the SMILES beside them. pT = C[C@@H](OP(=O)(O)O)[C@H](N)C(=O)O; pS = N[C@@H](COP(=O)(O)O)C(=O)O

Columns and labels:
Format in all cases: binding
AP2 μ2 = molecular target: T1, AP2 μ2 (Homo sapiens, UniProt Q96CW1); assay: FP displacement assay, AP2 μ2; conditions: probe FITC-ATG9A 5 nM, 50 mM sodium phosphate pH 7.4, room temperature, at least three technical replicates, read-out: KD values ± SEM
T1 construct: AP2_Mu__Q96CW1_160_435; GST (cleaved yes); made in house; host or cells: Escherichia coli BL21-Gold(DE3)
T1 sequence (Q96CW1 160-435): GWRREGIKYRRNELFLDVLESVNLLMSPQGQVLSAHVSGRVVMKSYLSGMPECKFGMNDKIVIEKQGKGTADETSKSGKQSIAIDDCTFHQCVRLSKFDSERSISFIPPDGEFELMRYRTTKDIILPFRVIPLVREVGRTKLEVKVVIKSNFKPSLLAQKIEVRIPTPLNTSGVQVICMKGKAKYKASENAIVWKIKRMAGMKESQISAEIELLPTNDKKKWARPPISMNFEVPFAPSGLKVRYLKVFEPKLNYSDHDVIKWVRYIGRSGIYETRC
Experimental: (§1) FP experiments were performed as described previously (Kliche et al, [2021]). Shortly, in order to monitor the binding event, FITC‐labelled peptides were used (excitation 495 nm, emission: 535 nm) and the FP signal was recorded in mP on a SpectraMax iD5 Multi‐Mode Microplate Reader (Molecular Devices) by measuring the emitted light in two angels. The measurements were performed at room temperature and prepared in nonbinding black half area 96‐well microplates (Corning®; 50 μl/well). For measuring direct binding, that is saturation curves, a 1:1 dilution series of protein domain (25 μl/well) was generated in 50 mM sodium phosphate buffer pH 7.4 and the measurement performed with 5 nM FITC‐labelled peptide (25 μl/well). The buffer‐corrected values were subsequently plotted with PRISM and fitted to the quadratic equation (Gianni et al, [2005]).
(§2) The 1:1 dilution series in this experiment was performed with the unlabelled peptide in 50 mM sodium phosphate buffer pH 7.4, so that each well‐contained unlabelled peptide (25 μl) at a certain concentration and pre‐formed complex (25 μl). The KD values of this indirectly monitored binding event were calculated as described previously (Nikolovska‐Coleska et al, [2004]). All measurements were at least in technical triplicates as well as biological duplicates when indicated. An amplitude shift between repeat measurements in the displacement experiments was occasionally observed due to variations in the protein preparations. If that was the case, the “active” protein concentration was back‐calculated according to the quadratic equation from the saturation curves performed in parallel. By comparing the active protein concentrations in the complex between different protein preparations, the amplitude was normalised.

PDCD6IP Alix V domain = molecular target: T2, PDCD6IP Alix V domain (Homo sapiens, UniProt Q8WUM4); assay: FP displacement assay, PDCD6IP Alix V domain; conditions: probe FITC-HIV1_Gag 5 nM, 50 mM sodium phosphate pH 7.4, room temperature, at least three technical replicates, read-out: KD values ± SEM
T2 construct: GST (cleaved yes); made in house; host or cells: Escherichia coli BL21-Gold(DE3)
T2 sequence (Q8WUM4 360-702): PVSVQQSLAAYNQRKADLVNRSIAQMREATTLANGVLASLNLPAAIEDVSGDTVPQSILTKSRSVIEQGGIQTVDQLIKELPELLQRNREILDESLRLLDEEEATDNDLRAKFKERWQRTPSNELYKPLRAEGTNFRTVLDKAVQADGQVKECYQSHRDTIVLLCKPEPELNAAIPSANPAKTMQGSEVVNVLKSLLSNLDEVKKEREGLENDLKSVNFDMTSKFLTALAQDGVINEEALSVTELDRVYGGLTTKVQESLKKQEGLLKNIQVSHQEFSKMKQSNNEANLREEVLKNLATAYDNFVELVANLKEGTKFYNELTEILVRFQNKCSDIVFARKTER
Experimental: as §1, §2

RANBP2 RanBD4 = molecular target: T3, RANBP2 RanBD4 (Homo sapiens, UniProt P49792); assay: FP displacement assay, RANBP2 RanBD4; conditions: probe FITC-C7orf25 5 nM, 50 mM sodium phosphate pH 7.4, room temperature, at least three technical replicates, read-out: KD values ± SEM
T3 construct: GST (cleaved yes); made in house; host or cells: Escherichia coli BL21-Gold(DE3)
T3 sequence (P49792 2924-3050): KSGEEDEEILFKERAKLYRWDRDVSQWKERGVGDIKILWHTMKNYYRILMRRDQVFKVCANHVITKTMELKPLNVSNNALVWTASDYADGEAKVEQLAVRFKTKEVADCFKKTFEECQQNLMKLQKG
Experimental: as §1, §2

Row | Kd (AP2 μ2) [µM] | Kd (PDCD6IP Alix V domain) [µM] | Kd (RANBP2 RanBD4) [µM] | Structure (SMILES)
1 | 3.7 ± 0.1 |  |  | CC[C@H](C)[C@H](NC(=O)[C@@H](NC(=O)[C@@H]1CCCN1C(=O)[C@H](CO)NC(=O)[C@H](CO)NC(=O)[C@H](C)NC(=O)[C@@H]1CCCN1C(=O)[C@H](CCSC)NC(=O)[C@@H]1CCCN1C(=O)[C@H](CCC(N)=O)NC(=O)[C@H](Cc1ccc(O)cc1)NC(=O)[C@@H]1CCCN1C(=O)[C@@H](NC(=O)[C@@H](NC(=O)[C@H](CCSC)NC(C)=O)[C@@H](C)O)[C@@H](C)CC)C(C)C)C(=O)N[C@@H](CS)C(N)=O [PCBP1_179–194 wt] (Ac-MTIPYQPMPASSPVIC-NH2)
2 | 0.67 ± 0.04 |  |  | CC[C@H](C)[C@H](NC(=O)[C@@H](NC(=O)[C@@H]1CCCN1C(=O)[C@H](COP(=O)(O)O)NC(=O)[C@H](CO)NC(=O)[C@H](C)NC(=O)[C@@H]1CCCN1C(=O)[C@H](CCSC)NC(=O)[C@@H]1CCCN1C(=O)[C@H](CCC(N)=O)NC(=O)[C@H](Cc1ccc(O)cc1)NC(=O)[C@@H]1CCCN1C(=O)[C@@H](NC(=O)[C@@H](NC(=O)[C@H](CCSC)NC(C)=O)[C@@H](C)O)[C@@H](C)CC)C(C)C)C(=O)N[C@@H](CS)C(N)=O [PCBP1_179–194 pS] (Ac-MTIPYQPMPAS[pS]PVIC-NH2)
3 |  | 68 ± 6 |  | CC(=O)N[C@H](C(=O)N[C@@H](CO)C(=O)N1CCC[C@H]1C(=O)N[C@@H](CC(C)C)C(=O)N[C@H](C(=O)N[C@@H](CO)C(=O)N[C@@H](CC(C)C)C(=O)N[C@@H](Cc1ccc(O)cc1)C(=O)N1CCC[C@H]1C(=O)N[C@@H](C)C(=O)N[C@@H](CC(C)C)C(=O)N[C@@H](CCC(=O)O)C(=O)N[C@@H](C)C(=O)N[C@@H](CCCNC(=N)N)C(=O)N[C@@H](C)C(=O)N[C@@H](CC(C)C)C(N)=O)C(C)C)[C@@H](C)O [OTUD5_507–522 wt] (Ac-TSPLVSLYPALEARAL-NH2)
4 |  | 13 ± 2 |  | CC[C@H](C)[C@H](NC(=O)[C@H](CCCCN)NC(=O)[C@H](CC(C)C)NC(=O)[C@@H]1CCCN1C(=O)[C@H](COP(=O)(O)O)NC(=O)[C@@H](NC(=O)[C@H](CCC(N)=O)NC(=O)[C@@H]1CCCN1C(=O)[C@H](Cc1ccc(O)cc1)NC(=O)[C@H](CC(C)C)NC(=O)[C@@H]1CCCN1C(=O)[C@H](CCCNC(=N)N)NC(=O)[C@H](CC(C)C)NC(=O)[C@@H]1CCCN1C(=O)[C@H](CO)NC(=O)[C@H](C)NC(C)=O)[C@@H](C)CC)C(N)=O [FOXK1_212–227 pS] (Ac-ASPLRPLYPQI[pS]PLKI-NH2)
5 |  | 116 ± 20 |  | CC(=O)N[C@H](C(=O)N[C@@H](COP(=O)(O)O)C(=O)N1CCC[C@H]1C(=O)N[C@@H](CC(C)C)C(=O)N[C@H](C(=O)N[C@@H](CO)C(=O)N[C@@H](CC(C)C)C(=O)N[C@@H](Cc1ccc(O)cc1)C(=O)N1CCC[C@H]1C(=O)N[C@@H](C)C(=O)N[C@@H](CC(C)C)C(=O)N[C@@H](CCC(=O)O)C(=O)N[C@@H](C)C(=O)N[C@@H](CCCNC(=N)N)C(=O)N[C@@H](C)C(=O)N[C@@H](CC(C)C)C(N)=O)C(C)C)[C@@H](C)O [OTUD5_507–522 pS] (Ac-T[pS]PLVSLYPALEARAL-NH2)
6 |  |  | 167 ± 21 | CC(=O)N[C@@H](CCCCN)C(=O)N[C@@H](Cc1ccc(O)cc1)C(=O)N[C@@H](CO)C(=O)N[C@@H](CC(=O)O)C(=O)N[C@@H](CC(=O)O)C(=O)N[C@H](C(=O)N1CCC[C@H]1C(=O)N[C@@H](CC(C)C)C(=O)N1CCC[C@H]1C(=O)N[C@H](C(=O)N1CCC[C@H]1C(=O)N[C@@H](CO)C(=O)N[C@@H](Cc1ccc(O)cc1)C(=O)N[C@@H](CCCCN)C(=O)N[C@@H](Cc1ccc(O)cc1)C(=O)N[C@@H](CC(N)=O)C(N)=O)[C@@H](C)OP(=O)(O)O)[C@@H](C)O [DHX38_260–275 pS] (Ac-KYSDDTPLP[pT]PSYKYN-NH2)
7 |  |  | 334 ± 35 | CC(=O)N[C@@H](Cc1c[nH]cn1)C(=O)N[C@@H](CC(C)C)C(=O)N1CCC[C@H]1C(=O)N[C@@H](CC(C)C)C(=O)N[C@@H](CC(N)=O)C(=O)N[C@@H](CO)C(=O)N1CCC[C@H]1C(=O)N[C@@H](CC(C)C)C(=O)N1CCC[C@H]1C(=O)NCC(=O)N[C@@H](CO)C(=O)N[C@@H](CCC(=O)O)C(=O)N[C@@H](CC(C)C)C(=O)N[C@H](C(=O)N[C@@H](CCCCN)C(=O)N[C@@H](Cc1ccc(O)cc1)C(N)=O)[C@@H](C)O [INTS6_145–159 wt] (Ac-HLPLNSPLPGSELTKY-NH2)
8 | 0.93 ± 0.01 |  |  | CC(=O)N[C@@H](Cc1ccccc1)C(=O)N1CCC[C@H]1C(=O)N[C@@H](CO)C(=O)N[C@@H](COP(=O)(O)O)C(=O)N[C@@H](Cc1ccc(O)cc1)C(=O)N[C@H](C(=O)N[C@@H](CCCCN)C(=O)N[C@@H](CC(C)C)C(=O)N[C@@H](CC(C)C)C(=O)N[C@@H](CCC(=O)O)C(=O)N[C@@H](CCC(=O)O)C(=O)N[C@@H](CC(N)=O)C(=O)N[C@@H](CCC(=O)O)C(=O)N[C@H](C(=O)N[C@@H](CCC(=O)O)C(=O)N[C@@H](C)C(N)=O)[C@@H](C)O)[C@@H](C)O [BAIAPL1_392–407 pS] (Ac-FPS[pS]YTKLLEENETEA-NH2)
9 | 1.29 ± 0.06 |  |  | CC(=O)N[C@@H](Cc1ccccc1)C(=O)N1CCC[C@H]1C(=O)N[C@@H](CO)C(=O)N[C@@H](CO)C(=O)N[C@@H](Cc1ccc(O)cc1)C(=O)N[C@H](C(=O)N[C@@H](CCCCN)C(=O)N[C@@H](CC(C)C)C(=O)N[C@@H](CC(C)C)C(=O)N[C@@H](CCC(=O)O)C(=O)N[C@@H](CCC(=O)O)C(=O)N[C@@H](CC(N)=O)C(=O)N[C@@H](CCC(=O)O)C(=O)N[C@H](C(=O)N[C@@H](CCC(=O)O)C(=O)N[C@@H](C)C(N)=O)[C@@H](C)O)[C@@H](C)O [BAIAPL1_392–407 wt] (Ac-FPSSYTKLLEENETEA-NH2)
10 |  | 25 ± 3 |  | CC[C@H](C)[C@H](NC(=O)[C@H](CCCCN)NC(=O)[C@H](CC(C)C)NC(=O)[C@@H]1CCCN1C(=O)[C@H](CO)NC(=O)[C@@H](NC(=O)[C@H](CCC(N)=O)NC(=O)[C@@H]1CCCN1C(=O)[C@H](Cc1ccc(O)cc1)NC(=O)[C@H](CC(C)C)NC(=O)[C@@H]1CCCN1C(=O)[C@H](CCCNC(=N)N)NC(=O)[C@H](CC(C)C)NC(=O)[C@@H]1CCCN1C(=O)[C@H](CO)NC(=O)[C@H](C)NC(C)=O)[C@@H](C)CC)C(N)=O [FOXK1_212–227 wt] (Ac-ASPLRPLYPQISPLKI-NH2)
11 |  |  | 733 ± 128 | CC(=O)N[C@@H](Cc1c[nH]cn1)C(=O)N[C@@H](CC(C)C)C(=O)N1CCC[C@H]1C(=O)N[C@@H](CC(C)C)C(=O)N[C@@H](CC(N)=O)C(=O)N[C@@H](COP(=O)(O)O)C(=O)N1CCC[C@H]1C(=O)N[C@@H](CC(C)C)C(=O)N1CCC[C@H]1C(=O)NCC(=O)N[C@@H](CO)C(=O)N[C@@H](CCC(=O)O)C(=O)N[C@@H](CC(C)C)C(=O)N[C@H](C(=O)N[C@@H](CCCCN)C(=O)N[C@@H](Cc1ccc(O)cc1)C(N)=O)[C@@H](C)O [INTS6_145–159 pS] (Ac-HLPLN[pS]PLPGSELTKY-NH2)
12 |  |  | 1500 | CC(=O)N[C@@H](CCCCN)C(=O)N[C@@H](Cc1ccc(O)cc1)C(=O)N[C@@H](CO)C(=O)N[C@@H](CC(=O)O)C(=O)N[C@@H](CC(=O)O)C(=O)N[C@H](C(=O)N1CCC[C@H]1C(=O)N[C@@H](CC(C)C)C(=O)N1CCC[C@H]1C(=O)N[C@H](C(=O)N1CCC[C@H]1C(=O)N[C@@H](CO)C(=O)N[C@@H](Cc1ccc(O)cc1)C(=O)N[C@@H](CCCCN)C(=O)N[C@@H](Cc1ccc(O)cc1)C(=O)N[C@@H](CC(N)=O)C(N)=O)[C@@H](C)O)[C@@H](C)O [DHX38_260–275 wt] (Ac-KYSDDTPLPTPSYKYN-NH2)
